Like-named read-outs stand apart in the source and are kept apart here.
Tests used:
PARP-1 = biological target: T1, PARP-1 (Homo sapiens, UniProt P09874); assay: PARP-1 inhibition assay (PARP-1 Chemiluminescent Assay Kit, BPS Bioscience); format: biochemical; conditions: 10 nM compound
T1 construct: purchased BPS Bioscience 80569
Protocol: (§1) The PARP-1 and PARP-2 inhibition assays were performed in outsourcing, by a CRO company, Shanghai Medicilon Inc. (Shanghai, China). […] Briefly, PARP-1 or PARP-2 biotinylated substrate was incubated with compounds or solvent control at varying concentrations and an assay buffer containing the PARP-1 or PARP-2 enzyme.

PARP-2 = biological target: T2, PARP-2 (Homo sapiens, UniProt Q9UGN5); assay: PARP-2 inhibition assay (PARP-2 Chemiluminescent Assay Kit, BPS Bioscience); format: biochemical; conditions: 10 nM compound
T2 construct: purchased BPS Bioscience 80552
Protocol: as §1

[1] = test system: MDA-MB-436 (a BRCA-1-mutated breast cancer cell line); assay: Cell proliferation assay, three-day, CellTiter-Glo, MDA-MB-436; format: cell-based; conditions: Homo sapiens; for inhibition at 0.00508 µM: MDA-MB-436, MDA-MB-436, Conc. 0.00508 uM; for inhibition at 0.0152 µM: MDA-MB-436, MDA-MB-436, Conc. 0.0152 uM; for inhibition at 0.0457 µM: MDA-MB-436, MDA-MB-436, Conc. 0.0457 uM; for inhibition at 0.41 µM: MDA-MB-436, MDA-MB-436, Conc. 0.41 uM; for inhibition at 1.23 µM: MDA-MB-436, MDA-MB-436, Conc. 1.23 uM; for inhibition at 3.7 µM: MDA-MB-436, MDA-MB-436, Conc. 3.70 uM; for inhibition at 11.11 µM: MDA-MB-436, MDA-MB-436, Conc. 11.11 uM; for inhibition at 33.33 µM: MDA-MB-436, MDA-MB-436, Conc. 33.33 uM; for inhibition at 100 µM: MDA-MB-436, MDA-MB-436, Conc. 100.00 uM; for IC50: MDA-MB-436, 72 h, CellTiter-Glo, read-out: MDA-MB-436 IC50
Summary of the method: (§2)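 Cells seeded overnight in 384-well plates, then exposed to compounds (DMSO stock diluted in medium) for 72 h at 37 °C, 5% CO2. Viability read as CellTiter-Glo luminescence after 60 min at room temperature.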

[2] = test system: CAPAN-1 (a BRCA-2-mutated pancreatic cancer cell line); assay: Cell proliferation assay, three-day, CellTiter-Glo, CAPAN-1; format: cell-based; conditions: Homo sapiens; for IC50: CAPAN-1, 72 h, CellTiter-Glo, read-out: CAPAN-1 IC50; for inhibition at 0.00508 µM: CAPAN-1, Conc. 0.00508 uM; for inhibition at 0.0152 µM: CAPAN-1, Conc. 0.0152 uM
Summary of the method: as §2

[3] = supplement sheet, read-out: 10 nM inhibition% PAPR-1
[4] = read-out: PARP-1 Inhibition % (10 nM)
[5] = supplement sheet, read-out: 10 nM inhibition% PAPR-2
[6] = read-out: PARP-2 Inhibition % (10 nM)

T2 sequence (Q9UGN5 whole entry): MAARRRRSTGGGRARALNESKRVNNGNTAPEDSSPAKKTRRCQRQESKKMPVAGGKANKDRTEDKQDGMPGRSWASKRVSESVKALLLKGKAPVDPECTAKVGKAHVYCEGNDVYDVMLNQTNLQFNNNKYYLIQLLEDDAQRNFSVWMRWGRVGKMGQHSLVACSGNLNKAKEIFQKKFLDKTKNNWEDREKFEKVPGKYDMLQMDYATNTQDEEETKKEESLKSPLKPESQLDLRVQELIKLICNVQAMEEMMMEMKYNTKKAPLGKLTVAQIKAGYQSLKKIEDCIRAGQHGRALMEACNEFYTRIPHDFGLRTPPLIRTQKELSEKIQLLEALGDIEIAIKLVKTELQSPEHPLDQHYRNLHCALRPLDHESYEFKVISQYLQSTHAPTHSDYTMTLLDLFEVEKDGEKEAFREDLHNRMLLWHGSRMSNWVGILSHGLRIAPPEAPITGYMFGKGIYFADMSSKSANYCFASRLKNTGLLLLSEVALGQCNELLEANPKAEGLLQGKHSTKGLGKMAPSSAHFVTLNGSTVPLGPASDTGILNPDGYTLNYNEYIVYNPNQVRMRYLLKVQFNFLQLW
T1 sequence (P09874 whole entry): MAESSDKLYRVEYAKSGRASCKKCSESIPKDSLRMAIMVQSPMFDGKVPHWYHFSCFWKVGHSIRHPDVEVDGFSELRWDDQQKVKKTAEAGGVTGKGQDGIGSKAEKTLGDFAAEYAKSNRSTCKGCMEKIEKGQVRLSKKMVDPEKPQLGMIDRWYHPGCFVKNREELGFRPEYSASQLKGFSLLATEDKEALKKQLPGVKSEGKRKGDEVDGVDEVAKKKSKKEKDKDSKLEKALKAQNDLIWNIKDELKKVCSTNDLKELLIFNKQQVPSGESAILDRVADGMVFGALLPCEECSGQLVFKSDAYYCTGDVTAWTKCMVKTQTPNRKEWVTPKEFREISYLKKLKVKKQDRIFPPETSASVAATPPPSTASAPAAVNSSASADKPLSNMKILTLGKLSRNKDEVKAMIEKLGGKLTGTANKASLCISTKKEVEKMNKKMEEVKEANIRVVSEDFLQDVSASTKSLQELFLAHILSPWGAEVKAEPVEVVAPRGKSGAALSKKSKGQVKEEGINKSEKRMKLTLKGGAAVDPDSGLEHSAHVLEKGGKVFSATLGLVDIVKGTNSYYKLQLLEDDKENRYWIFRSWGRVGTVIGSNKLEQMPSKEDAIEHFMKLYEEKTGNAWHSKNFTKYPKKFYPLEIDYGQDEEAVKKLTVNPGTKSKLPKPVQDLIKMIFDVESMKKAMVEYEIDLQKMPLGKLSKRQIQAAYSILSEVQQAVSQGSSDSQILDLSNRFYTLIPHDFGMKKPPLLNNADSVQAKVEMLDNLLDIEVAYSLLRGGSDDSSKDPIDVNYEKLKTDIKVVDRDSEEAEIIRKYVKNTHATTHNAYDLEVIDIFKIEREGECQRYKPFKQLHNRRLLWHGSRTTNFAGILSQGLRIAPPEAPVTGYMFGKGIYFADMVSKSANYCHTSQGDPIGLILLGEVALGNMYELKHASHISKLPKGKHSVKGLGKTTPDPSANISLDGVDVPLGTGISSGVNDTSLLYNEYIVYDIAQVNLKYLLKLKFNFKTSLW

Q: How did the inhibition at 0.01 µM (PARP-1; [3]) turn out when `NC(=O)c1cccc2[nH]c(C3CCN(CCN4C(=O)c5ccccc5C4=O)C3)nc12` (stereo not shown) [Compound 5ck, 2-(1-(2-(1,3-Dioxoisoindolin-2-yl)ethyl)pyrrolidin-3-yl)-1H-benzo[d]imidazole-4-carboxamide] was run?
A: 6.02%

Q: What about the inhibition at 0.01 µM (PARP-1; [4]) of the same compound?
A: 6%

Q: What about the inhibition at 0.01 µM (PARP-2; [5]) of the same compound?
A: 37.1%

Q: What about the inhibition at 0.01 µM (PARP-2; [6]) of the same compound?
A: 37.1%

Q: And the inhibition at 0.00508 µM ([1]; replicate 1, read-out: Inh % 1)?
A: -0.108%

Q: What about the inhibition at 0.00508 µM ([1]; replicate 2, read-out: Inh % 2) of the same compound?
A: -3.8%

Q: What about the inhibition at 0.0152 µM ([1]; replicate 1, read-out: Inh % 1) of the same compound?
A: -3.1%

Q: And the inhibition at 0.0152 µM ([1]; replicate 2, read-out: Inh % 2)?
A: -1.8%

Q: What about the inhibition at 0.0457 µM ([1]; replicate 1, read-out: Inh % 1) of the same compound?
A: -9.3%

Q: And the inhibition at 0.0457 µM ([1]; replicate 2, read-out: Inh % 2)?
A: -11.9%

Q: What about the inhibition at 0.41 µM ([1]; replicate 1, read-out: Inh % 1) of the same compound?
A: -11%

Q: And the inhibition at 0.41 µM ([1]; replicate 2, read-out: Inh % 2)?
A: -21.7%

Q: And the inhibition at 1.23 µM ([1]; replicate 1, read-out: Inh % 1)?
A: -18.8%

Q: And the inhibition at 1.23 µM ([1]; replicate 2, read-out: Inh % 2)?
A: -14.6%

Q: And the inhibition at 3.7 µM ([1]; replicate 1, read-out: Inh % 1)?
A: -15.1%

Q: What about the inhibition at 3.7 µM ([1]; replicate 2, read-out: Inh % 2) of the same compound?
A: -12.2%

Q: And the inhibition at 11.11 µM ([1]; replicate 1, read-out: Inh % 1)?
A: -14.1%

Q: What about the inhibition at 11.11 µM ([1]; replicate 2, read-out: Inh % 2) of the same compound?
A: -10%

Q: And the inhibition at 33.33 µM ([1]; replicate 1, read-out: Inh % 1)?
A: -6.4%

Q: What about the inhibition at 33.33 µM ([1]; replicate 2, read-out: Inh % 2) of the same compound?
A: -12%

Q: What about the inhibition at 100 µM ([1]; replicate 1, read-out: Inh % 1) of the same compound?
A: -8.9%

Q: And the inhibition at 100 µM ([1]; replicate 2, read-out: Inh % 2)?
A: -13.6%

Q: What about the IC50 [1] of the same compound?
A: > 100 µM

Q: And the IC50 [2]?
A: > 100 µM

Q: And the inhibition at 0.0457 µM ([2]; CAPAN-1, 0.0457 uM, replicate 1, read-out: Inh % 1)?
A: -1.5%

Q: What about the inhibition at 0.0457 µM ([2]; CAPAN-1, 0.0457 uM, replicate 2, read-out: Inh % 2) of the same compound?
A: -9.2%

Q: And the inhibition at […] ([2]; CAPAN-1, 0.14 uM, replicate 1, read-out: Inh % 1)?
A: 8.7%

Q: And the inhibition at […] ([2]; CAPAN-1, 0.14 uM, replicate 2, read-out: Inh % 2)?
A: -3.2%

Q: And the inhibition at 0.41 µM ([2]; CAPAN-1, 0.41 uM, replicate 1, read-out: Inh % 1)?
A: 9%

Q: What about the inhibition at 0.41 µM ([2]; CAPAN-1, 0.41 uM, replicate 2, read-out: Inh % 2) of the same compound?
A: -5.8%

Q: What about the inhibition at 1.23 µM ([2]; CAPAN-1, 1.23 uM, replicate 1, read-out: Inh % 1) of the same compound?
A: 3.9%

Q: And the inhibition at 1.23 µM ([2]; CAPAN-1, 1.23 uM, replicate 2, read-out: Inh % 2)?
A: -9.8%

Q: What about the inhibition at 3.7 µM ([2]; CAPAN-1, 3.70 uM, replicate 1, read-out: Inh % 1) of the same compound?
A: 1.2%

Q: What about the inhibition at 3.7 µM ([2]; CAPAN-1, 3.70 uM, replicate 2, read-out: Inh % 2) of the same compound?
A: 2.6%

Q: What about the inhibition at 11.11 µM ([2]; CAPAN-1, 11.11 uM, replicate 1, read-out: Inh % 1) of the same compound?
A: -2.3%

Q: What about the inhibition at 11.11 µM ([2]; CAPAN-1, 11.11 uM, replicate 2, read-out: Inh % 2) of the same compound?
A: -4.3%

Q: What about the inhibition at 33.33 µM ([2]; CAPAN-1, 33.33 uM, replicate 1, read-out: Inh % 1) of the same compound?
A: 6.8%

Q: What about the inhibition at 33.33 µM ([2]; CAPAN-1, 33.33 uM, replicate 2, read-out: Inh % 2) of the same compound?
A: 4.4%

Q: And the inhibition at 100 µM ([2]; CAPAN-1, 100.00 uM, replicate 1, read-out: Inh % 1)?
A: -2.5%

Q: What about the inhibition at 100 µM ([2]; CAPAN-1, 100.00 uM, replicate 2, read-out: Inh % 2) of the same compound?
A: -5.6%

Q: What about the inhibition at 0.00508 µM ([2]; replicate 1, read-out: Inh % 1) of the same compound?
A: 2.6%

Q: And the inhibition at 0.00508 µM ([2]; replicate 2, read-out: Inh % 2)?
A: 0.639%

Q: What about the inhibition at 0.0152 µM ([2]; replicate 1, read-out: Inh % 1) of the same compound?
A: 6.1%

Q: And the inhibition at 0.0152 µM ([2]; replicate 2, read-out: Inh % 2)?
A: -0.5%

Q: What does the source list for `NCCCN1CCC(c2nc3c(C(N)=O)cccc3[nH]2)C1` (stereo not shown) [Compound 5cl, 2-(1-(3-Aminopropyl)pyrrolidin-3-yl)-1H-benzo[d]imidazole-4-carboxamide]?
A: inhibition at 0.01 µM (PARP-1; [3]): 26.8%; inhibition at 0.01 µM (PARP-1; [4]): 26.8%; inhibition at 0.01 µM (PARP-2; [5]): 46.4%; inhibition at 0.01 µM (PARP-2; [6]): 46.4%; inhibition at 0.00508 µM ([1]; replicate 1, read-out: Inh % 1): 4.5%; inhibition at 0.00508 µM ([1]; replicate 2, read-out: Inh % 2): -3.7%; inhibition at 0.0152 µM ([1]; replicate 1, read-out: Inh % 1): 0.4%; inhibition at 0.0152 µM ([1]; replicate 2, read-out: Inh % 2): -4.9%; inhibition at 0.0457 µM ([1]; replicate 1, read-out: Inh % 1): -13.5%; inhibition at 0.0457 µM ([1]; replicate 2, read-out: Inh % 2): -10.1%; inhibition at 0.41 µM ([1]; replicate 1, read-out: Inh % 1): -7.3%; inhibition at 0.41 µM ([1]; replicate 2, read-out: Inh % 2): -7.6%; inhibition at 1.23 µM ([1]; replicate 1, read-out: Inh % 1): -9%; inhibition at 1.23 µM ([1]; replicate 2, read-out: Inh % 2): -8.7%; inhibition at 3.7 µM ([1]; replicate 1, read-out: Inh % 1): -7.4%; inhibition at 3.7 µM ([1]; replicate 2, read-out: Inh % 2): -9.8%; inhibition at 11.11 µM ([1]; replicate 1, read-out: Inh % 1): -5.4%; inhibition at 11.11 µM ([1]; replicate 2, read-out: Inh % 2): -5.2%; inhibition at 33.33 µM ([1]; replicate 1, read-out: Inh % 1): 1.9%; inhibition at 33.33 µM ([1]; replicate 2, read-out: Inh % 2): -7%; inhibition at 100 µM ([1]; replicate 1, read-out: Inh % 1): 7.4%; inhibition at 100 µM ([1]; replicate 2, read-out: Inh % 2): 2.1%; IC50 [1]: > 100 µM; IC50 [2]: > 100 µM; inhibition at 0.00508 µM ([2]; replicate 1, read-out: Inh % 1): 0.0228%; inhibition at 0.00508 µM ([2]; replicate 2, read-out: Inh % 2): -3.6%; inhibition at 0.0152 µM ([2]; replicate 1, read-out: Inh % 1): -3.3%; inhibition at 0.0152 µM ([2]; replicate 2, read-out: Inh % 2): -4.8%; inhibition at 0.0457 µM ([2]; CAPAN-1, Conc. 0.0457 uM, replicate 1, read-out: Inh % 1): 0.238%; inhibition at 0.0457 µM ([2]; CAPAN-1, Conc. 0.0457 uM, replicate 2, read-out: Inh % 2): -10.3%; inhibition at […] ([2]; CAPAN-1, Conc. 0.14 uM, replicate 1, read-out: Inh % 1): 4.7%; inhibition at […] ([2]; CAPAN-1, Conc. 0.14 uM, replicate 2, read-out: Inh % 2): -9.8%; inhibition at 0.41 µM ([2]; CAPAN-1, Conc. 0.41 uM, replicate 1, read-out: Inh % 1): 1.3%; inhibition at 0.41 µM ([2]; CAPAN-1, Conc. 0.41 uM, replicate 2, read-out: Inh % 2): 5.2%; inhibition at 1.23 µM ([2]; CAPAN-1, Conc. 1.23 uM, replicate 1, read-out: Inh % 1): -5.5%; inhibition at 1.23 µM ([2]; CAPAN-1, Conc. 1.23 uM, replicate 2, read-out: Inh % 2): 3.8%; inhibition at 3.7 µM ([2]; CAPAN-1, Conc. 3.70 uM, replicate 1, read-out: Inh % 1): 4.6%; inhibition at 3.7 µM ([2]; CAPAN-1, Conc. 3.70 uM, replicate 2, read-out: Inh % 2): -3%; inhibition at 11.11 µM ([2]; CAPAN-1, Conc. 11.11 uM, replicate 1, read-out: Inh % 1): -2.8%; inhibition at 11.11 µM ([2]; CAPAN-1, Conc. 11.11 uM, replicate 2, read-out: Inh % 2): -3.6%; inhibition at 33.33 µM ([2]; CAPAN-1, Conc. 33.33 uM, replicate 1, read-out: Inh % 1): -7.9%; inhibition at 33.33 µM ([2]; CAPAN-1, Conc. 33.33 uM, replicate 2, read-out: Inh % 2): -7.8%; inhibition at 100 µM ([2]; CAPAN-1, Conc. 100.00 uM, replicate 1, read-out: Inh % 1): -10.8%; inhibition at 100 µM ([2]; CAPAN-1, Conc. 100.00 uM, replicate 2, read-out: Inh % 2): -6.6%

— PMC6572064, “Discovery of 2-(1-(3-(4-Chloroxyphenyl)-3-oxo- propyl)pyrrolidine-3-yl)-1H-benzo[d]imidazole-4-carboxamide: A Potent Poly(ADP-ribose) Polymerase (PARP) Inhibitor for Treatment of Cancer” (Molecules, 2019)
